Measured values from patent US20090131513A1, “ANTI-INFLAMMATORY MODALITIES” (Novogen Research Pty Ltd., priority 2005, published 2009).

Tested on: eicosanoid synthesis by the inflamed colon
Assay: PGE2 and TXB2 production by cultured colons from DSS colitis mice (Experiment 4)
Format: in vivo
Experimental: Groups of mice (n=5) were dosed once daily with Compound 11 mg/kg or vehicle throughout the experiment, and killed either on day 6, 9 or 13. Colons were removed, opened longitudinally and washed in PBS with pen/strep (100 U/ml/100 μg/ml, Invitrogen) with added fungizone (2.5 ug/ml, Invitrogen). They were then cut into small portions and approximately 100 mg colon was placed into one well of a 24-well plate either in the presence or absence of ConA (10 μg/ml, Sigma) containing 1 ml modified RPMIc (pen/strep and fungizone as above) for 18-24 hours. Supernatant was collected, centrifuged and stored at −80° C. PGE2 and TXB2 in the culture supernatants were measured in triplicate by ELISA (Cayman Chemical).

## O=C1c2ccc(O)c(Br)c2OCC1c1ccc(O)cc1 (stereo not drawn) [Compound 1, 3-(4-hydroxyphenyl)-7-hydroxy-8-bromo-chroman-4-one]
ConA 10 μg/ml
  PGE2 and TXB2 responses of colons cultured in the presence of ConA: reduce these responses, although not significantly so
Cultured in the absence of mitogenic stimulation, day 6 and day 9 (p<0.05)
  TXB2 production by colons versus DSS + vehicle: less TXB2
Cultured in the absence of mitogenic stimulation, day 9 and day 13
  PGE2 production by colons versus DSS + vehicle: less PGE2
